US5236899A (Merck & Co., Inc., priority 1991, dated 1993)

Experiments:
[1] = Nephrotoxicity in an in vivo mouse model; conditions: result in words
[2] = tested on: MDR CHO cells (multidrug-resistant); test: Doxorubicin growth inhibition, methylene blue staining method, multidrug-resistant cells; assay type: cell-based, Chinese hamster; conditions: Cricetulus griseus, doxorubicin only, about 72 hours continuous exposure
Text: Multidrug-resistant cells lines are easily obtainable for in vitro determination of drug sensitization by compounds of the present invention, as well as other compounds with similar activity. These cell lines include NIH-OVCAR-3 (ATCC HTB161)., which is commercially available. Other cell lines can be readily developed in accordance with the methods described by Twentyman et al., Br. J. Cancer, 54, 253 (1986). This procedure selects for multidrug-resistant cells by culturing the parental drug sensitive cell line in the continued presence of a cytotoxic drug, for example, doxorubicin.
Drug sensitive cells will perish while multidrug-resistant cells will survive and grow despite the presence of the drug. Eventually, a multidrug-resistant cell population emerges and can be used in an assay system for the detection of agents which can modify the multidrug-resistance. Many cell lines are suitable as parental cell lines from which multidrug-resistant cells can be selected. […]
Equal numbers of cells of an anchorage dependent mammalian cell line are seeded in growth medium (e.g. alpha MEM plus 10% FBS) into a suitable culture vessel, e.g. plastic 96 well tissue culture plates. […] The amount of methylene blue dye in the wells can be measured spectrophotometrically by measuring absorbance at 600 nm using an electronic ELISA plate spectrophotmeter (Minireader II, Dynatech Laboratories, Alexandria, VA). […]

[3] = tested on: Parental CHO cells (Drug Sensitive); test: Doxorubicin growth inhibition, methylene blue staining method, parental drug-sensitive cells; assay type: cell-based, Chinese hamster; conditions: Cricetulus griseus, doxorubicin only, about 72 hours continuous exposure
Description: Equal numbers of cells of an anchorage dependent mammalian cell line are seeded in growth medium (e.g. alpha MEM plus 10% FBS) into a suitable culture vessel, e.g. plastic 96 well tissue culture plates. A cytotoxic drug (e.g. doxorubicin) is added to the cells in the dishes at various concentrations ranging between 0 and 100 uM. Following about 72 hours of continuous exposure to the cytotoxic agent, the growth medium is decanted and the cells are washed with a suitable buffer, e.g. phosphate buffered saline (PBS). About 2 ml of a solution of 2% methylene blue (dissolve methylene blue in a solution of about 50% ethanol in water) is added to the cells on the dishes. The dye is allowed to contact the cells for about 2 minutes. Excess dye is washed away with cold water and the plates are air dried. The dye stained cells are then solubilized by adding an equal volume to all wells of a solution of a detergent, e.g. 1% N-lauroyl-sarcosine. The amount of dye remaining in the wells directly correlates witht he number of cells in the well. The amount of methylene blue dye in the wells can be measured spectrophotometrically by measuring absorbance at 600 nm using an electronic ELISA plate spectrophotmeter (Minireader II, Dynatech Laboratories, Alexandria, VA). […]

| SMILES | Nephrotoxicity [1] | IC50 [2] [µM] | IC50 [3] [µM] |
| --- | --- | --- | --- |
| C/C=C/C[C@@H](C)[C@@H](O)[C@H]1C(=O)N[C@@H](CC)C(=O)N(C)CC(=O)N(C)[C@@H](CC(C)C)C(=O)N[C@@H](C(C)C)C(=O)N(C)[C@@H](C)C(=O)N[C@@H](C)C(=O)N[C@H](C)C(=O)N(C)[C@@H](CC(C)C)C(=O)N(C)[C@@H](CC(C)C)C(=O)N(C)[C@@H](C(C)C)C(=O)N1C [6-MeAla, Cyclo[-((2S,3R,4R,6E)-3-Hydroxy-4-methyl-2-methylamino-6-octenoyl)-L-2-aminobutyryl-sarcosyl-N-methyl-L-leucyl-Valyl-N-methyl-L-alanyl-L-alanyl-D-alanyl-N-methyl-L-leucyl-N-methyl-L-leucyl-N-methyl-L-valyl]] | lack the nephrotoxic side effects |  |  |
| C/C=C/C[C@@H](C)[C@@H](O)[C@H]1C(=O)N[C@@H](CC)C(=O)N(C)CC(=O)N(C)[C@@H](CC(C)C)C(=O)N[C@@H](C(C)C)C(=O)N(C)[C@@H](CC)C(=O)N[C@@H](C)C(=O)N[C@H](C)C(=O)N(C)[C@@H](CC(C)C)C(=O)N(C)[C@@H](CC(C)C)C(=O)N(C)[C@@H](C(C)C)C(=O)N1C [6-MeAbu] | lack the nephrotoxic side effects |  |  |
| COc1cccc2c1C(=O)c1c(O)c3c(c(O)c1C2=O)C[C@@](O)(C(=O)CO)C[C@@H]3O[C@H]1C[C@H](N)[C@H](O)[C@H](C)O1 [Doxorubicin, doxorubicin] |  | 11.3 ± 0.51 | 0.17 ± 0.01 |
